{"source": "patent US20130273564A1", "about": "“DISPERSION INJECTION METHODS FOR BIOSENSING” (priority 2010, published 2013)", "test_system": "partially denatured carbonic anhydrase II", "details": "sigmoidal TDi, degraded surface, 10° C., global two-site interaction model", "protocol": "A second sensing surface remained uncoated to provide an accurate reference surface. […] FCI was performed by separately injecting 50 μL of each dilution at a rate of 50 μL min^−1. EDTA was excluded from the buffer to maintain the binding activity of the Zn-dependent carbonic anhydrase 11.\nTwo separate sigmoidal TDi assays were performed. The first sigmoidal TDi assay (FIG. 8B) was performed by injecting 250 μL of analyte sample at a flow rate of 100 μL min^−1 using a dispersion tube having a total volume capacity of 512 μL and a diameter of 0.50 mm. […] The second sigmoidal TDi assay (FIG. 8C) was performed by injecting 250 μL of analyte sample at a flow rate of 50 μL min^−1 using a dispersion tube having a total volume capacity of 512 μL and a diameter of 0.50 mm. […] The carbonic anhydrase II-coated surface was permitted to degrade at 25° C. for several days before performing the sigmoid TDi analysis. The second TDi assay was performed at 10° C. to preserve weak non-specific binding in order to mimic a realistic complex data set."}
{"smiles": "NS(=O)(=O)c1cc(C(=O)O)c(NCc2ccco2)cc1Cl", "note": "[furosemide]", "values": [{"measurement": "D", "result": "4.49(1)×10^−10 m^2s^−1"}]}
